The test concerns the target Complement C3 (Homo sapiens, UniProt P01024). The test can be described thus: Binding affinity to recombinant human C3d assessed as dissociation constant incubated for 5 mins by microscale thermophoresis assay.

The values below come from ChEMBL document CHEMBL4613323, “Factor H-Inspired Design of Peptide Biomarkers of the Complement C3d Protein” (ACS Med Chem Lett, 2020).

What is called Kd is the free concentration of one partner at which half of the binding sites on the other are occupied at equilibrium, for simple one-to-one binding.

Complement C3, sequence (P01024 23-667 limits assumed): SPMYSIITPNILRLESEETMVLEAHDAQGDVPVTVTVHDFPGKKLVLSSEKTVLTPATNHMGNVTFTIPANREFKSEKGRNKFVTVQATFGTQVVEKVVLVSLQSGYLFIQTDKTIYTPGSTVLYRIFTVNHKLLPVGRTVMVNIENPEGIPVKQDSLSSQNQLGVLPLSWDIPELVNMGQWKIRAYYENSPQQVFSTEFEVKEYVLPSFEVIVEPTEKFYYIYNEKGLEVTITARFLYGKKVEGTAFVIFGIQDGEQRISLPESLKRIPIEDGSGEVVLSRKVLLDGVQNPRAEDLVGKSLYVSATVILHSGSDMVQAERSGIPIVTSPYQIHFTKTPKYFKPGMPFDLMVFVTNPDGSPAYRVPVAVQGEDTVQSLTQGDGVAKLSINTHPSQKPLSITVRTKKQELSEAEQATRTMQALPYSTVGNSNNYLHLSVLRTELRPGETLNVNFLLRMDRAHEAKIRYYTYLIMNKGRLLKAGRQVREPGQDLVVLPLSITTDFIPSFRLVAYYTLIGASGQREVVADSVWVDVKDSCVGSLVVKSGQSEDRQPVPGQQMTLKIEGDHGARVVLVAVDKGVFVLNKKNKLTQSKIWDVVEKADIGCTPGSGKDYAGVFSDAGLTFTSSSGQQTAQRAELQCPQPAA
Complement C3, sequence (P01024 672-1663 limits assumed): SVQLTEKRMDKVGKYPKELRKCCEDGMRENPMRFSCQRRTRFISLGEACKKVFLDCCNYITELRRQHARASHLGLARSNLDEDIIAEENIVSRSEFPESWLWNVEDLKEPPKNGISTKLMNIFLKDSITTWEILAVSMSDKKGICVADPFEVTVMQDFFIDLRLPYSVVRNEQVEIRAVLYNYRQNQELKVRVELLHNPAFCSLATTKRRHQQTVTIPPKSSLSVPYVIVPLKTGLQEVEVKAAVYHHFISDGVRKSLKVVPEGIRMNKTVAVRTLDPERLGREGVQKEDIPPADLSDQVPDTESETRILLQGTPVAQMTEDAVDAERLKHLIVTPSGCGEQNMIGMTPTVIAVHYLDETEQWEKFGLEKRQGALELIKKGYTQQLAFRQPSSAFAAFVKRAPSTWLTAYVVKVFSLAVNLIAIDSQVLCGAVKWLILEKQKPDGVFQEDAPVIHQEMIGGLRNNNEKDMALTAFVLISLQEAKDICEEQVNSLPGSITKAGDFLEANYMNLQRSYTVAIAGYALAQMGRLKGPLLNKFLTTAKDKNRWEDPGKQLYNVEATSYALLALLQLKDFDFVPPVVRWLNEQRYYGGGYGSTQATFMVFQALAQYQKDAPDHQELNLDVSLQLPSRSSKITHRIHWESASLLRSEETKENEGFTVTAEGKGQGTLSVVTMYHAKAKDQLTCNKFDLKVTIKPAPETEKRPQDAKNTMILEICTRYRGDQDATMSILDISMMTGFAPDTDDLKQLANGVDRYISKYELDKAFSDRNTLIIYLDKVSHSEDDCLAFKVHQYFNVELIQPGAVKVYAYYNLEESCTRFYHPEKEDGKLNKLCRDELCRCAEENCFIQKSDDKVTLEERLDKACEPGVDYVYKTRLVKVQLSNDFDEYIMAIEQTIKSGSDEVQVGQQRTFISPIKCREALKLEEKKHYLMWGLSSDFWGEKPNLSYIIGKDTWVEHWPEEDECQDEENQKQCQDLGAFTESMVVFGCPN

For `CC(=O)NCC(=O)N[C@H]1CSSC[C@@H](C(=O)NCC(N)=O)NC(=O)[C@H](CCCNC(=N)N)NC(=O)[C@H](Cc2ccc(O)cc2)NC(=O)CNC(=O)[C@H](CCCNC(=N)N)NC(=O)[C@H](CCCCN)NC1=O` (stereo in doubt; form 2), the Kd came to 61.6 µM.
